# “And” between values parts separate entries of the source, which are not always exact repeats. Identical values can stand only once. Like-named read-outs stand apart in the source and are kept apart here.
# What was measured:
# [1] = test system: PANC-1 cells; assay: Cell proliferation assay, GEM + ATR inhibitor (Incucyte confluence, 72 h); details: for EC50: Homo sapiens; for Curve bottom / Curve top: PANC-1, plateau of fitted curve, ratio drug/vehicle confluence;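 on EC50: in combination experiments GEM is titrated while ATRi is held at a fixed sub-EC50 dose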;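 on all read-outs here: PANC-1 confluence at 72 h taken as raw values, not normalized to starting confluence, with each experiment run in triplicate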
# Description: Cells were seeded at 5000 cells/well into 96-well flat bottom plates (Eppendorf) and allowed to attach overnight. […] Cells were incubated for 72 h at 37 °C and 5% CO2. Cell confluence readouts at 72 h were either normalized to their initial confluence using the Incucyte software (AsPC-1) or used without prior normalization (all others). […] Each experiment was performed in triplicates, the data was plotted as mean ± standard deviation (s.d.).
# [2] = test system: p-sites in DNA-damaged AsPC-1 cells; assay: decryptM dose-resolved phosphoproteomics of ATRi in GEM-pre-treated cells; format: cell-based, human; details: for EC50: Homo sapiens
# Description: Cell culture medium was replaced 24 h after seeding. […] For time point 0, AsPC-1 cells were treated with a vehicle and lysed immediately. The final DMSO concentration in all experiments was 0.2%.
# Briefly, cells were washed twice with PBS and lysed in SDS lysis buffer (2% SDS in 40 mM Tris-HCl, pH 7.6), followed by sonication for 10 min (30 s on/30 s off) using a Bioruptor (Diagenode). For DNA hydrolysis, samples were boiled at 95 °C for 10 min and incubated with 2% trifluoroacetic acid (TFA) for 1 min, before the reaction was quenched using 4% N-methylmorpholine. Lysate was cleared by centrifugation at 11,000 × g for 5 min and protein concentration was determined using the Pierce BCA Protein Assay Kit (Thermo Scientific).
# Using 70% ethanol, samples were then precipitated on beads, followed by washing thrice with 80% ethanol and once with 100% acetonitrile. Subsequently, proteins were reduced and alkylated using 10 mM TCEP, 50 mM chloroacetamide, and 2 mM CaCl2 in 100 mM EPPS/NaOH, pH 8.5 for 1 h at 37 °C, followed by tryptic digestion at 37 °C for 16 h. Peptides were acidified with 1% TFA and desalted on Chromabond HLB plates (30 µm particle size, 10 mg capacity, Machery-Nagel), using 0.1% TFA for equilibration and sample loading, and 0.1% TFA in 70% acetonitrile for peptide elution. Recovered peptides were freeze-dried by vacuum-centrifugation and stored at −20 °C.
# Depending on the experiment, samples were either labeled with TMT-11plex (decryptM), TMT-10plex (non-decryptM, quadruplicates), or TMTpro reagent (time-series; all Thermo Scientific). Therefore, dried peptides were reconstituted in 15 µl 100 mM EPPS, pH 8.5 and each treatment condition was labeled with one channel of the respective TMT reagent (5 µl of 25 µg/µl reagent, Appendix Tables S4–S6). The reaction was incubated for 1 h at 23 °C and subsequently quenched with 0.4% hydroxylamine. Then, samples were pooled, acidified with 1% formic acid, and freeze-dried by vacuum-centrifugation. Labeled peptide pools were desalted on C18 Sep-Pak cartridges (37–55 µm particle size, 50 mg capacity, Waters), using 0.1% formic acid as equilibration solvent, and 0.1% formic acid in 60% acetonitrile was used as elution solvent. Eluted peptides were freeze-dried and stored at −20 °C until further use.
# Basic reversed-phase (bRP) fractionation of peptides was performed on a Vanquish HPLC (Thermo Scientific). In short, dried peptides were reconstituted in 200 µl 25 mM ammonium bicarbonate, pH 8.0 and directly injected onto a Waters BEH130 XBridge C18 column (3.5 µm, 4.6 × 250 mm). […] Using an automated fraction collector, 96 fractions were collected between min 7 and 55 after injection. Fractions were acidified with 1% formic acid and pooled to 48 fractions, before they were freeze-dried and stored at −20 °C.
# Immobilized metal ion affinity chromatography (IMAC) enrichment of phosphorylated peptides was performed on the Bravo automated liquid handling platform using AssayMAP Fe(III)-NTA cartridges (Agilent). In brief, the 48 dried peptide fractions were reconstituted in 0.1% TFA in 80% acetonitrile and further pooled to 12 fractions (200 µl final volume per well). The phosphopeptide enrichment protocol embedded in the Agilent AssayMAP Bravo Protein Sample Prep Workbench v2.0 software was run. Thereby, the cartridges were first primed with 150 μl 0.1% TFA in acetonitrile at 300 μl/min, and equilibrated with 150 μl 0.1% TFA in 80% acetonitrile at 10 μl/min. Then, pooled fractions were loaded at 5 µl/min and further washed three times with 150 μl 0.1% TFA in 80% acetonitrile at 50 μl/min. Enriched peptides were eluted with 60 μl 1% ammonium hydroxide at 5 μl/min.
compound,measurement,setting,value
CNCc1ccc(-c2cc(-c3nc(-c4ccc(S(=O)(=O)C(C)C)cc4)cnc3N)on2)cc1 [Berzosertib],EC50,"[1]; PANC-1, 72 h, read-out: EC50 mean [nM], PANC-1, experiment ATRi (ATR inhibitor alone), mean of replicates",22200 nM
same,EC50,"[1]; PANC-1, PANC-1, experiment ATRi (ATR inhibitor alone), replicates R1-R3",31800 nM
same,EC50,"[1]; PANC-1, PANC-1, experiment GEM+ATRi_dose1, replicates R1-R3",4.75 nM
same,EC50,"[1]; PANC-1, PANC-1, experiment GEM+ATRi_dose2, replicates R1-R3",6.05 nM
same,EC50,"[1]; PANC-1, PANC-1, experiment GEM+ATRi_dose3, replicates R1-R3",3.25 nM
same,EC50,"[1]; PANC-1, read-out: EC50 mean [nM], PANC-1, experiment ATRi (ATR inhibitor alone), mean of replicates",22200 nM
same,EC50,"[1]; PANC-1, read-out: EC50 mean [nM], PANC-1, experiment GEM+ATRi_dose1, mean of replicates",4.43 nM
same,EC50,"[1]; PANC-1, read-out: EC50 mean [nM], PANC-1, experiment GEM+ATRi_dose2, mean of replicates",5.92 nM
same,EC50,"[1]; PANC-1, read-out: EC50 mean [nM], PANC-1, experiment GEM+ATRi_dose3, mean of replicates",4.05 nM
same,EC50,"[1]; PANC-1, read-out: pEC50, PANC-1 (converted), experiment ATRi (ATR inhibitor alone), -log10 of EC50 [M]",31600 nM
same,EC50,"[1]; PANC-1, read-out: pEC50, PANC-1 (converted), experiment GEM+ATRi_dose1, replicates R1-R3, -log10 of EC50 [M]",4.79 nM
same,EC50,"[1]; PANC-1, read-out: pEC50, PANC-1 (converted), experiment GEM+ATRi_dose2, replicates R1-R3, -log10 of EC50 [M]",6.03 nM
same,EC50,"[1]; PANC-1, read-out: pEC50, PANC-1 (converted), experiment GEM+ATRi_dose3, replicates R1-R3, -log10 of EC50 [M]",3.24 nM
same,Curve bottom,[1]; experiment ATRi (ATR inhibitor alone),1.01 and 0.99
same,Curve top,[1]; experiment GEM+ATRi_dose1,0.60 and 0.57
same,Curve top,[1]; experiment GEM+ATRi_dose2,0.57 and 0.55
same,Curve bottom,[1]; experiment GEM+ATRi_dose3,0.93 and 0.91
same,Curve top,[1]; experiment GEM+ATRi_dose3,0.55 and 0.54
same,Log2 PTM response (GEM+ATRi vs. GEM),[2]; AASDHPPT-pS258,-2
same,Log2 PTM response (GEM+ATRi vs. GEM),[2]; BRCA1-pS1239,-1.2
same,Log2 PTM response (GEM+ATRi vs. GEM),[2]; BRD8-pS621,-2.5
same,Log2 PTM response (GEM+ATRi vs. GEM),[2]; CDKN2AIP-pS198,-2
same,Log2 PTM response (GEM+ATRi vs. GEM),[2]; CHEK1-pS317,-2.8
same,Log2 PTM response (GEM+ATRi vs. GEM),[2]; CHEK1-pS468,-2.9
same,Log2 PTM response (GEM+ATRi vs. GEM),[2]; DHX9-pS321,-2.3
same,Log2 PTM response (GEM+ATRi vs. GEM),[2]; EXO1-pS714,-2.7
same,Log2 PTM response (GEM+ATRi vs. GEM),[2]; FANCD2-pS319,-2.6
same,Log2 PTM response (GEM+ATRi vs. GEM),[2]; HDGF-pS103,-2.4
same,Log2 PTM response (GEM+ATRi vs. GEM),[2]; HMGA1-pS9,-3
same,Log2 PTM response (GEM+ATRi vs. GEM),[2]; HMGA1-pS36;S44,-1.4
same,Log2 PTM response (GEM+ATRi vs. GEM),[2]; HMGA1-pS44,-2.9
same,Log2 PTM response (GEM+ATRi vs. GEM),[2]; HSPA4-pS552,-2.1
same,Log2 PTM response (GEM+ATRi vs. GEM),[2]; HTATSF1-pS481,-2
same,EC50,"[2]; ASPC1, read-out: EC50 of the majority of pSQ/pTQ sites",~100 nM
same,EC50,"[2]; ASPC1, read-out: pEC50 of the majority of pSQ/pTQ sites (converted)",~100 nM
same,EC50,"[2]; ASPC1, p-site dose-response in GEM-pre-treated cells, read-out: EC50, PPM1G S201",61.6 nM
same,EC50,"[2]; ASPC1, p-site dose-response in GEM-pre-treated cells, read-out: EC50, RALY S176",124 nM
same,EC50,"[2]; ASPC1, p-site dose-response in GEM-pre-treated cells, read-out: pEC50, PPM1G S201 (converted)",61.7 nM
same,EC50,"[2]; ASPC1, p-site dose-response in GEM-pre-treated cells, read-out: pEC50, RALY S176 (converted)",126 nM
same,EC50,"[2]; ASPC1, read-out: median EC50 across all drug-regulated pSQ/pTQ-sites",188 nM
same,Log2 PTM response (GEM+ATRi vs. GEM),[2]; LRRC42-pS385,-3.3
same,Log2 PTM response (GEM+ATRi vs. GEM),[2]; NBN-pS397,-1.8
same,Log2 PTM response (GEM+ATRi vs. GEM),[2]; NBN-pS615,-0.9
same,Log2 PTM response (GEM+ATRi vs. GEM),[2]; NSUN5-pS432,-3.5
same,Log2 PTM response (GEM+ATRi vs. GEM),[2]; PELP1-pS1033,-1.4
same,Log2 PTM response (GEM+ATRi vs. GEM),[2]; PHF14-pS294,-1.9
same,Log2 PTM response (GEM+ATRi vs. GEM),[2]; PNISR-pS706,-2.2
same,Log2 PTM response (GEM+ATRi vs. GEM),[2]; PPM1G-pS201,-3.5
same,Log2 PTM response (GEM+ATRi vs. GEM),[2]; PPP6R3-pS825,-1.4
same,Log2 PTM response (GEM+ATRi vs. GEM),[2]; PSMD4-pS266,-1.6
same,Log2 PTM response (GEM+ATRi vs. GEM),[2]; RAD18-pS368,-1
same,Log2 PTM response (GEM+ATRi vs. GEM),[2]; RIF1-pS1873,-2.2
same,Log2 PTM response (GEM+ATRi vs. GEM),[2]; SNRPA-pS115,-1.2
same,Log2 PTM response (GEM+ATRi vs. GEM),[2]; TCEA1-pS100;S97,-1
same,Log2 PTM response (GEM+ATRi vs. GEM),[2]; TCEB3-pS251,-2.1
same,Log2 PTM response (GEM+ATRi vs. GEM),[2]; TOPBP1-pS1504,-1.9
same,Log2 PTM response (GEM+ATRi vs. GEM),[2]; TSEN34-pS136,-1.2
same,Log2 PTM response (GEM+ATRi vs. GEM),[2]; UHRF1-pS393,-2.3
same,Log2 PTM response (GEM+ATRi vs. GEM),[2]; UIMC1-pS171,-1.5
same,Log2 PTM response (GEM+ATRi vs. GEM),[2]; ZC3H14-pS135,-1.5
same,"ATRi Regulation (Curve), PPM1G S201",[2]; classified by CurveCurator,down
same,"ATRi Regulation (Curve), RALY S176",[2]; classified by CurveCurator,down
same,PTM response (norm. to 1 µM GEM),"[2]; source data 4B (p-site not named), 1 µM GEM + ATRi 1 nM",1.08
same,PTM response (norm. to 1 µM GEM),"[2]; source data 4B (p-site not named), 1 µM GEM + ATRi 3 nM",1.06
same,PTM response (norm. to 1 µM GEM),"[2]; source data 4B (p-site not named), 1 µM GEM + ATRi 10 nM",0.94
same,PTM response (norm. to 1 µM GEM),"[2]; source data 4B (p-site not named), 1 µM GEM + ATRi 30 nM",1.20
same,PTM response (norm. to 1 µM GEM),"[2]; source data 4B (p-site not named), 1 µM GEM + ATRi 100 nM",0.78
same,PTM response (norm. to 1 µM GEM),"[2]; source data 4B (p-site not named), 1 µM GEM + ATRi 300 nM",0.40
same,PTM response (norm. to 1 µM GEM),"[2]; source data 4B (p-site not named), 1 µM GEM + ATRi 1000 nM",0.20
same,PTM response (norm. to 1 µM GEM),"[2]; source data 4B (p-site not named), 1 µM GEM + ATRi 3000 nM",0.14
same,PTM response (norm. to 1 µM GEM),"[2]; source data 4B (p-site not named), 1 µM GEM + ATRi 10000 nM",0.15
same,PTM response (norm. to 1 µM GEM),"[2]; source data 5B (p-site not named), 1 µM GEM + ATRi 1 nM",0.81
same,PTM response (norm. to 1 µM GEM),"[2]; source data 5B (p-site not named), 1 µM GEM + ATRi 3 nM",0.96
same,PTM response (norm. to 1 µM GEM),"[2]; source data 5B (p-site not named), 1 µM GEM + ATRi 10 nM",0.69
same,PTM response (norm. to 1 µM GEM),"[2]; source data 5B (p-site not named), 1 µM GEM + ATRi 30 nM",0.83
same,PTM response (norm. to 1 µM GEM),"[2]; source data 5B (p-site not named), 1 µM GEM + ATRi 100 nM",0.51
same,PTM response (norm. to 1 µM GEM),"[2]; source data 5B (p-site not named), 1 µM GEM + ATRi 300 nM",0.19
same,PTM response (norm. to 1 µM GEM),"[2]; source data 5B (p-site not named), 1 µM GEM + ATRi 1000 nM",0.12
same,PTM response (norm. to 1 µM GEM),"[2]; source data 5B (p-site not named), 1 µM GEM + ATRi 3000 nM",0.13
same,PTM response (norm. to 1 µM GEM),"[2]; source data 5B (p-site not named), 1 µM GEM + ATRi 10000 nM",0.12

# From PMC11876601 (Molecular Systems Biology, 2025)
